According to PMC9572942, “The Discovery of Small Allosteric and Active Site Inhibitors of the SARS-CoV-2 Main Protease via Structure-Based Virtual Screening and Biological Evaluation” (Molecules, 2022):
Where “and” joins values, the source holds several entries; their conditions need not be identical. Identical values can stand only once. Entries after “also recorded” stand apart in the source; their conditions may differ.

Assays:
Assay type in all cases: biochemical
[1] = target: T1, SARS-CoV-2 M^pro enzyme (Severe acute respiratory syndrome coronavirus 2, UniProt P0DTD1); experiment: FRET-based enzyme assay and IC50 determination; details: for IC50: 4.6 μM enzyme, HEPES pH 6.5, read-out: IC50; for inhibition at 100 µM: 100 μM compound, in Figure 5; for inhibition at 200 µM: 200 μM compound
[2] = target: T1, SARS-CoV-2 M^pro enzyme; experiment: Promiscuity tests (pre-incubation, 10-fold enzyme concentration, BSA buffer); details: 100 μM compound
[3] = target: T1, SARS-CoV-2 M^pro enzyme; experiment: Inhibition kinetic study (Lineweaver–Burk, FRET assay); details: for inhibition mechanism: Lineweaver–Burk plot; for Ki: from slope of Lineweaver–Burk curves vs. inhibitor concentration, read-out: Ki
[4] = 4.6 μM enzyme, read-out: Inhibition % at 100 μM at 4.6 μM enzyme concentration
[5] = 46 μM enzyme (10-fold), read-out: Inhibition % at 100 μM at 46 μM enzyme concentration
[6] = no BSA, read-out: Inhibition % at 100 μM without BSA in assay buffer
[7] = read-out: Inhibition % at 100 μM with BSA in assay buffer, BSA in 20 mM HEPES pH 6.5, read-out: Inhibition % at 100 μM with 1g/mL BSA in assay buffer
[8] = 15 min pre-incubation with enzyme, read-out: Inhibition % at 100 μM with 15 min pre-incubation
[9] = pre-incubation test, read-out: Inhibition % at 100 μM without pre-incubation

With `CCCc1nc2c(o1)OC(N)=C(C#N)[C@H]2c1cccc(O)c1` [GR20] the IC50 [1] was 92 µM and 91.8 µM, the inhibition at 100 µM [2, 4] was 48.6% and the inhibition at 100 µM [2, 5] was 48%. For the same compound, the inhibition at 100 µM [2, 6] was 50%, the inhibition at 100 µM [2, 7] was 51.4% and the inhibition mechanism [3] was “mix inhibition model; also recorded: mixed inhibition mode”. It also gave a Ki [3] of 89 µM.
`CN(CCCO)c1cc2c3c(cccc3n1)C(=O)c1ccccc1-2` [GR04] was tested, and the IC50 [1] was 346 ± 10 µM, the inhibition at 100 µM [1] was 35% and the inhibition at 200 µM [1] was 61%. The inhibition at 100 µM [2, 4] was 33.5%, the inhibition at 100 µM [2, 5] was 33.9% and the inhibition at 100 µM [2, 8] was 34.3%. The inhibition at 100 µM [2, 6] was 33%, the inhibition at 100 µM [2, 9] was 35.4% and the inhibition at 100 µM [2, 7] was 35%. For the same compound, the inhibition mechanism [3] was “noncompetitive model; also recorded: noncompetitive inhibition mechanism” and the Ki [3] was 298 µM.
In the case of `O=C(CSc1cnc2ccccc2n1)NC1CCCC1` [CB03], the inhibition at 100 µM [2, 4] is reported as 15%, the inhibition at 100 µM [2, 5] is reported as 13.1% and the inhibition at 100 µM [2, 8] is reported as 14.2%. It also gave an inhibition at 100 µM [2, 6] of 15.5%, an inhibition at 100 µM [2, 9] of 15.1% and an inhibition at 100 µM [2, 7] of 17.3%. The inhibition mechanism [3] was “competitive mechanism”.
`COC(=O)C1C(O)=C2C(=CC1C)Nc1ccccc1NC2c1ccc2ccccc2c1` (stereo not shown) [CD06] gave an IC50 [1] of 226 ± 17.5 µM.
With `O=C(NC1CCNCC1)c1[nH]ncc1NC(=O)c1c(Cl)cccc1Cl` [AT7519, reference compound] the inhibition at 100 µM [1] was 8% and the inhibition at 200 µM [1] was 18%.
